In experiment [1] the test system is Pseudopestalotiopsis theae. The experiment can be described thus: Fungicidal activity against grey blight disease-causing Pestalotiopsis theae infested tea plantation assessed as disease incidence at 0.05 % applied as foliar spray (reference value: 39.2 %). The class given is functional.
The test system of experiment [2] is Pseudopestalotiopsis theae. Briefly: Fungicidal activity against Pestalotiopsis theae infested tea plant in nursery assessed as reduction in plant casuality at 0.05 % sprayed on topsoil measured after 90 days (reference value: 58 %). The class given is functional. Also noted: scale not given: the % may be the effect or the level left.
For experiment [3], the system named is Pseudopestalotiopsis theae. The experiment can be described thus: Fungicidal activity against Pestalotiopsis theae infested tea plant in nursery assessed as reduction in plant casuality at 5 % sprayed on topsoil measured after 90 days. The class given is functional, organism-based.
Experiment [4] deals with Pseudopestalotiopsis theae. Briefly: Fungicidal activity against grey blight disease-causing Pestalotiopsis theae infested tea plantation assessed as green leaf yield which made tea at 0.05 % applied as foliar spray (reference value: 2884 kg/ha ). The class given is functional.
Experiment [5] deals with Pseudopestalotiopsis theae. The experiment can be described thus: Fungicidal activity against grey blight disease-causing Pestalotiopsis theae infested tea plantation assessed as disease incidence compound applied on shears during hravesting (reference value: 47 %). It counts as functional.
The test system of experiment [6] is Pseudopestalotiopsis theae. The experiment can be described thus: Fungicidal activity against grey blight disease-causing Pestalotiopsis theae infested tea plantation assessed as green leaf yield which made tea compound applied on shears during hravesting (reference value: 3044 kg/ha). The class given is functional.
Experiment [7] relates to Pseudopestalotiopsis theae. Briefly: Fungicidal activity against Pestalotiopsis theae infested tea plant in nursery assessed as reduction in plant casuality at 3 % sprayed on topsoil measured after 90 days. The class given is functional, organism-based.

Active and inactive are the calls of the source. The calls are words filed in the database; no cut-off is given here.

Take `COC(=O)Nc1nc2ccccc2[nH]1` [CARBENDAZIM]: the Activity turned out to be 6.6% in experiment [1] and 5% in experiment [2]. The result in experiment [3] was Active. Moreover, the Crop_yield in experiment [4] was 3845 kg/ha.

`COC(=O)NC(=S)Nc1ccccc1NC(=S)NC(=O)OC` [THIOPHANATE METHYL]: the Activity in experiment [1] amounted to 5.6%; in experiment [5], 17.5%; in experiment [2], 3%. Further, the Crop_yield in experiment [4] was 3886 kg/ha; in experiment [6] it was 3457 kg/ha. Besides, the result in experiment [7] was Active.

Source of the values: ChEMBL document CHEMBL3045161, “Evaluation of fungicides and biocontrol agents against grey blight disease of tea in the field” (2008).
